In brackets after ≈: the same amount, converted by molar mass. Non-standard residues stand in square brackets, D forms with d. Residues, ends and D or L forms follow the SMILES beside them. No end group written: not given here. Dopa = N[C@@H](Cc1ccc(O)c(O)c1)C(=O)O
The molecules below were run on E. coli (assay: not given). Conditions: 18 h.
Format: cell-based, Escherichia coli
Procedure: In order to confirm the antimicrobial activity of the adhesive antimicrobial peptides prepared in Experimental Example 1-1, the minimal inhibitory concentration (MIC) which inhibits the growth of E. coli was identified by using a method disclosed in Nature Protocols. 2008; 3(2):163-175. Briefly, a culture medium in which a single colony had been grown for 16 hours was subcultured and grown until OD600 reached 0.4 to 0.6, which corresponds to logarithmic growth. Thereafter, the number of cells was calculated according to the OD values, and the number of cells was set at 10^6 cell/mL. When a Mueller-Hinton Broth (MHB) was loaded to a polypropylene 96-well plate, 90 μL was added to the first row of the plate and 100 μL was added to the control wells, and 50 μL was added to the remaining wells. Thereafter, the peptide solution was prepared at a concentration of […], and 10 μL thereof was added to each well of the first row. The peptide solution was mixed with the medium using a multi-pipette, and then 50 μL was transferred to the second row (B). At this time, the peptide was diluted to half concentration, and the peptide was transferred up to the seventh row by the same method so that the peptide (64 μM to 1 μM) was dissolved in the medium. 10^6 cell/mL of Escherichia coli, which had been prepared previously, was added thereto, and then the plate was cultured for 18 hours. Thus, the final concentration range of the peptide used in the experiment became 32 μM to 0.5 μM. After culturing for 18 hours, the OD values were measured using a microplate reader (Tecan i-control 200 pro), and the MIC values were identified.

| Molecule | MIC |
| --- | --- |
| CC[C@H](C)[C@H](NC(=O)CNC(=O)[C@H](CCCCN)NC(=O)[C@H](CCCCN)NC(=O)[C@H](CCC(N)=O)NC(=O)[C@H](CC(C)C)NC(=O)[C@H](CCCCN)NC(=O)[C@H](CC(C)C)NC(=O)[C@H](CC(C)C)NC(=O)[C@H](CCCCN)NC(=O)[C@H](CCCCN)NC(=O)[C@H](CC(C)C)NC(=O)[C@H](CC(C)C)NC(=O)[C@H](CCCCN)NC(=O)[C@H](CCSC)NC(=O)[C@H](C)NC(=O)[C@H](CCCCN)NC(=O)[C@@H]1CCCN1C(=O)[C@H](C)N)C(=O)NCC(=O)NCC(=O)NCC(=O)NCC(=O)N[C@@H](CO)C(=O)NCC(=O)NCC(=O)NCC(=O)NCC(=O)N[C@@H](CO)C(=O)N[C@@H](Cc1ccc(O)c(O)c1)C(=O)O [NKC-(G4S)2-DOPA1] (HELM PEPTIDE1{A.P.K.A.M.K.L.L.K.K.L.L.K.L.Q.K.K.G.I.G.G.G.G.S.G.G.G.G.S.[O=C(O)[C@H](Cc1ccc(O)c(O)c1)N[*:1]]}$$$$V2.0; N-terminus and C-terminus assumed) | 8 µM (≈ 23.7 µg/mL) |
| CC[C@H](C)[C@H](NC(=O)CNC(=O)[C@H](CCCCN)NC(=O)[C@H](CCCCN)NC(=O)[C@H](CCC(N)=O)NC(=O)[C@H](CC(C)C)NC(=O)[C@H](CCCCN)NC(=O)[C@H](CC(C)C)NC(=O)[C@H](CC(C)C)NC(=O)[C@H](CCCCN)NC(=O)[C@H](CCCCN)NC(=O)[C@H](CC(C)C)NC(=O)[C@H](CC(C)C)NC(=O)[C@H](CCCCN)NC(=O)[C@H](CCSC)NC(=O)[C@H](C)NC(=O)[C@H](CCCCN)NC(=O)[C@@H]1CCCN1C(=O)[C@H](C)N)C(=O)NCC(=O)NCC(=O)NCC(=O)NCC(=O)N[C@@H](CO)C(=O)NCC(=O)NCC(=O)NCC(=O)NCC(=O)N[C@@H](CO)C(=O)N[C@@H](Cc1ccc(O)c(O)c1)C(=O)N[C@@H](Cc1ccc(O)c(O)c1)C(=O)N[C@@H](Cc1ccc(O)c(O)c1)C(=O)O [NKC-(G4S)2-DOPA3] (H-APKAMKLLKKLLKLQKKGIGGGGSGGGGS[Dopa][Dopa][Dopa]-OH; N-terminus and C-terminus assumed) | 8 µM (≈ 26.5 µg/mL) |
| CC[C@H](C)[C@H](NC(=O)CNC(=O)[C@H](CCCCN)NC(=O)[C@H](CCCCN)NC(=O)[C@H](CCC(N)=O)NC(=O)[C@H](CC(C)C)NC(=O)[C@H](CCCCN)NC(=O)[C@H](CC(C)C)NC(=O)[C@H](CC(C)C)NC(=O)[C@H](CCCCN)NC(=O)[C@H](CCCCN)NC(=O)[C@H](CC(C)C)NC(=O)[C@H](CC(C)C)NC(=O)[C@H](CCCCN)NC(=O)[C@H](CCSC)NC(=O)[C@H](C)NC(=O)[C@H](CCCCN)NC(=O)[C@@H]1CCCN1C(=O)[C@H](C)N)C(=O)NCC(=O)NCC(=O)NCC(=O)NCC(=O)N[C@@H](CO)C(=O)NCC(=O)NCC(=O)NCC(=O)NCC(=O)N[C@@H](CO)C(=O)N[C@@H](Cc1ccc(O)c(O)c1)C(=O)N[C@@H](Cc1ccc(O)c(O)c1)C(=O)N[C@@H](Cc1ccc(O)c(O)c1)C(=O)N[C@@H](Cc1ccc(O)c(O)c1)C(=O)N[C@@H](Cc1ccc(O)c(O)c1)C(=O)O [NKC-(G4S)2-DOPA5] (H-APKAMKLLKKLLKLQKKGIGGGGSGGGGS[Dopa][Dopa][Dopa][Dopa][Dopa]-OH) | 8 µM (≈ 29.4 µg/mL) |
| CC[C@H](C)[C@H](NC(=O)CNC(=O)[C@H](CCCCN)NC(=O)[C@H](CCCCN)NC(=O)[C@H](CCC(N)=O)NC(=O)[C@H](CC(C)C)NC(=O)[C@H](CCCCN)NC(=O)[C@H](CC(C)C)NC(=O)[C@H](CC(C)C)NC(=O)[C@H](CCCCN)NC(=O)[C@H](CCCCN)NC(=O)[C@H](CC(C)C)NC(=O)[C@H](CC(C)C)NC(=O)[C@H](CCCCN)NC(=O)[C@H](CCSC)NC(=O)[C@H](C)NC(=O)[C@H](CCCCN)NC(=O)[C@@H]1CCCN1C(=O)[C@H](C)N)C(=O)NCC(=O)NCC(=O)NCC(=O)NCC(=O)N[C@@H](CO)C(=O)NCC(=O)NCC(=O)NCC(=O)NCC(=O)N[C@@H](CO)C(=O)N[C@@H](Cc1ccc(O)c(O)c1)C(=O)N[C@@H](Cc1ccc(O)c(O)c1)C(=O)N[C@@H](Cc1ccc(O)c(O)c1)C(=O)N[C@@H](Cc1ccc(O)c(O)c1)C(=O)N[C@@H](Cc1ccc(O)c(O)c1)C(=O)N[C@@H](Cc1ccc(O)c(O)c1)C(=O)N[C@@H](Cc1ccc(O)c(O)c1)C(=O)O [NKC-(G4S)2-DOPA7] (H-APKAMKLLKKLLKLQKKGIGGGGSGGGGS[Dopa][Dopa][Dopa][Dopa][Dopa][Dopa][Dopa]-OH; N-terminus and C-terminus assumed) | 16 µM (≈ 64.6 µg/mL) |
| APKAMKLLKKLLKLQKKGI [NKC] | 1 µM |

What follows are molecules tested on E. coli (assay: Antimicrobial activity of the coated surface (modified ISO 22196 / colony counting assay)). Conditions: coated on polystyrene at 25, 50 and 100 μM, E. coli cultured 24 hours.
Format: cell-based, Escherichia coli
Procedure: In order to confirm the antimicrobial activity in the state where the antimicrobial peptides are coated, the experiment was carried out by an ISO 22196 method in which some steps were changed. Based on the results of Experimental Example 2-1 above, the experiment on the antimicrobial activity was carried out by only using the NKCs to which 3, 5, and 7 DOPA moieties were conjugated (i.e., NKC-L-O3, NKC-L-O5, NKC-L-O7, respectively). Each of NKC-L-O3, NKC-L-O5, and NKC-L-O7 was coated on a polystyrene surface at different concentrations of 25 μM, 50 μM, and 100 μM, and then E. coli in logarithmic phase (10^6 cell/mL) was cultured on the coated surface for 24 hours. After the culture, the culture medium was diluted to a certain concentration and smeared on a plate, and the CFU values were confirmed after 16 hours. The E. coli death level, calculated by comparing the above CFU values with CFU values of the uncoated surface, is represented using the following equation.
Antimicrobial Activity=(1−CFU of Surface of Sample/CFU of Control)×100
In order to measure the antimicrobial activity of NKC-L-O5 (100 μM) according to coating time, a colony counting assay was carried out. […] The plate was cultured at 37° C. for 16 hours, and then the colonies were counted.

| Molecule | antimicrobial activity in coated state, dependence |
| --- | --- |
| CC[C@H](C)[C@H](NC(=O)CNC(=O)[C@H](CCCCN)NC(=O)[C@H](CCCCN)NC(=O)[C@H](CCC(N)=O)NC(=O)[C@H](CC(C)C)NC(=O)[C@H](CCCCN)NC(=O)[C@H](CC(C)C)NC(=O)[C@H](CC(C)C)NC(=O)[C@H](CCCCN)NC(=O)[C@H](CCCCN)NC(=O)[C@H](CC(C)C)NC(=O)[C@H](CC(C)C)NC(=O)[C@H](CCCCN)NC(=O)[C@H](CCSC)NC(=O)[C@H](C)NC(=O)[C@H](CCCCN)NC(=O)[C@@H]1CCCN1C(=O)[C@H](C)N)C(=O)NCC(=O)NCC(=O)NCC(=O)NCC(=O)N[C@@H](CO)C(=O)NCC(=O)NCC(=O)NCC(=O)NCC(=O)N[C@@H](CO)C(=O)N[C@@H](Cc1ccc(O)c(O)c1)C(=O)N[C@@H](Cc1ccc(O)c(O)c1)C(=O)N[C@@H](Cc1ccc(O)c(O)c1)C(=O)O [NKC-(G4S)2-DOPA3] (H-APKAMKLLKKLLKLQKKGIGGGGSGGGGS[Dopa][Dopa][Dopa]-OH; N-terminus and C-terminus assumed) | antimicrobial activity dependent on the number of DOPA moieties and the concentration of the NKC |
